# Molecular target: T1, human M4 muscarinic acetylcholine receptor (Homo sapiens, UniProt P08173)
# T1 construct: expressed in transfected cells; host or cells: CHO-K1
# T1 sequence (P08173 1-479): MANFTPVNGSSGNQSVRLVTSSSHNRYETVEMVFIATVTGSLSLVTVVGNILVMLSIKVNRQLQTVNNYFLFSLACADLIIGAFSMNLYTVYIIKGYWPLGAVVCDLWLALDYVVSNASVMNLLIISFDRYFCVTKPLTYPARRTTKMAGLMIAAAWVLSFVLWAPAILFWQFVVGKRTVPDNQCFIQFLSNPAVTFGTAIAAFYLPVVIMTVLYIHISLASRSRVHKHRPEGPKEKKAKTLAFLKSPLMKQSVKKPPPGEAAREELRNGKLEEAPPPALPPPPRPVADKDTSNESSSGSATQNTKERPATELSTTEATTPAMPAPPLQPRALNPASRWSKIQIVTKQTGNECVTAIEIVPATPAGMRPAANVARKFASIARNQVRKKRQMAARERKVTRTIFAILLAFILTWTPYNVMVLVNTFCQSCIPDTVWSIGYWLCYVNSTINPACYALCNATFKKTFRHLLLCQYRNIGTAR
# Assay: human FLIPR-based M4 PAM assay, CHO-K1 cells stably transfected with human M4 receptor and chimeric G-protein Gαqi5
# Format: cell-based
# Settings: inflection point (IP) of dose response curve; acetylcholine added at 20% of maximum response; CHO-K1 human M4/Gαqi5, FLIPR Tetra
# In short: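 The FLIPR read recorded 4 min after compound was added across a concentration range, then 3.5 min after acetylcholine giving 20% of its maximal response, with an occasional extra EC70 addition. Cells were dye-loaded for about 1 h at 37 °C. Potency is the curve inflection point from a four-parameter logistic fit.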
row,SMILES,EC50
1,"Cc1cc(C#N)nnc1N1CCC(Oc2cccc(C#N)c2)CC1 [Example 259, 6-(4-(3-cyanophenoxy)piperidin-1-yl)-5-methylpyridazine-3-carbonitrile]",62 nM
2,"CCc1ncnc(N2CCC(Oc3cccc(C#N)c3)CC2)c1C [Example 261, 3-((1-(6-Ethyl-5-methylpyrimidin-4-yl)piperidin-4-yl)oxy)benzonitrile]",425 nM
3,"COc1ccc(OC2CCN(c3nnc(-c4nnc(C)o4)cc3C)CC2)cn1 [Example 263, 2-(6-(4-((6-Methoxypyridin-3-yl)oxy)piperidin-1-yl)-5-methylpyridazin-3-yl)-5-methyl-1,3,4-oxadiazole]",251 nM
4,"COc1ccc(OC2CCN(c3nnc(-c4noc(C)n4)cc3C)CC2)cn1 [Example 264, 3-(6-(4-((6-Methoxypyridin-3-yl)oxy)piperidin-1-yl)-5-methylpyridazin-3-yl)-5-methyl-1,2,4-oxadiazole]",399 nM
5,"COc1ccc(OC2CCN(c3nnc(C(=O)NCc4ccncc4)cc3C(F)F)CC2)cn1 [Example 265, 5-(Difluoromethyl)-6-(4-((6-methoxypyridin-3-yl)oxy)piperidin-1-yl)-N-(pyridin-4-ylmethyl)pyridazine-3-carboxamide]",585 nM
6,"COC(=O)c1cc(C)c(N2CCC(Oc3ccc4c(c3)COC4)CC2)nc1Cl [Example 267, Methyl 2-chloro-6-(4-((1,3-dihydroisobenzofuran-5-yl)oxy)piperidin-1-yl)-5-methylnicotinate]",2570 nM

# Other lines, results leading:
row,EC50,SMILES
1,73 nM,"COc1ccc(OC2CCN(c3nnc(C#N)cc3C)CC2)cn1 [Example 258, 6-(4-((6-Methoxypyridin-3-yl)oxy)piperidin-1-yl)-5-methylpyridazine-3-carbonitrile]"
2,2560 nM,"Cc1c(C#N)nc(CO)nc1N1CCC(Oc2ccc3c(c2)C(=O)OC3)CC1 [Example 260, 2-(hydroxymethyl)-5-methyl-6-(4-((3-oxo-1,3-dihydroisobenzofuran-5-yl)oxy)piperidin-1-yl)pyrimidine-4-carbonitrile]"
3,4290 nM,"Cc1cc(C(=O)NCc2ccncc2)c(N)nc1N1CCC(Oc2cccc(C#N)c2)CC1 [Example 266, 2-Amino-6-(4-(3-cyanophenoxy)piperidin-1-yl)-5-methyl-N-(pyridin-4-ylmethyl)nicotinamide]"

# From patent publication US11319298B2 (Merck Sharp & Dohme Corp., priority 2016, dated 2022)
